Tests used:
[1] = Kinetic solubility; type: physicochemical
[2] = tested on: autophagic flux in MDA-MB-468 cells expressing mCherry-EGFP-LC3; assay: mCherry-GFP-LC3 FACS autophagic flux assay; type: cell-based, human; settings: 48 h
[3] = mice, stated as noted previously, no data shown, cited from earlier work
[4] = target: T1, recombinant human ULK1 protein (1-649) (Homo sapiens, UniProt O75385); assay: ULK1 ADP-Glo kinase assay; type: biochemical; settings: for ULK1 ADP-Glo potency compared with compound 3: in words
T1 sequence (O75385 1-649): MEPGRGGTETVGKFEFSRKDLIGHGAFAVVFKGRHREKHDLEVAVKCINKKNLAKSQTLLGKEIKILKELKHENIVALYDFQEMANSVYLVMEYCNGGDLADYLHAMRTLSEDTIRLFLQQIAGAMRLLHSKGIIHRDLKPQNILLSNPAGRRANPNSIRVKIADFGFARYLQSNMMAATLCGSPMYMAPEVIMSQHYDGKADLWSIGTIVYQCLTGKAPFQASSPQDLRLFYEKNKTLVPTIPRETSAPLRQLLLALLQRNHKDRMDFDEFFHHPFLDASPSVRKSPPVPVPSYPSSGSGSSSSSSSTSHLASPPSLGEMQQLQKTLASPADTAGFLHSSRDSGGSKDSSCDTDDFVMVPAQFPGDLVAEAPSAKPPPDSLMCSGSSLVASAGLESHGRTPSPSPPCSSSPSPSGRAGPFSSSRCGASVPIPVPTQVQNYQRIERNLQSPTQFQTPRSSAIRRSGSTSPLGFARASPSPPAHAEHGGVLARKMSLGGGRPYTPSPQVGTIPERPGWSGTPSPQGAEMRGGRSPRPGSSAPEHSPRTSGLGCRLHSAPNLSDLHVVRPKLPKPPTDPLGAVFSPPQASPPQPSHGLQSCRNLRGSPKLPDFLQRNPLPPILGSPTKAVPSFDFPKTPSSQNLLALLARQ

[5] = target: T2, ULK1 (NanoLuc-ULK1 fusion) (Homo sapiens, UniProt O75385); assay: ULK1 NanoBRET intracellular kinase target engagement assay in HEK293T cells; type: cell-based; settings: HEK293T live cells
T2 sequence (O75385 1-1050): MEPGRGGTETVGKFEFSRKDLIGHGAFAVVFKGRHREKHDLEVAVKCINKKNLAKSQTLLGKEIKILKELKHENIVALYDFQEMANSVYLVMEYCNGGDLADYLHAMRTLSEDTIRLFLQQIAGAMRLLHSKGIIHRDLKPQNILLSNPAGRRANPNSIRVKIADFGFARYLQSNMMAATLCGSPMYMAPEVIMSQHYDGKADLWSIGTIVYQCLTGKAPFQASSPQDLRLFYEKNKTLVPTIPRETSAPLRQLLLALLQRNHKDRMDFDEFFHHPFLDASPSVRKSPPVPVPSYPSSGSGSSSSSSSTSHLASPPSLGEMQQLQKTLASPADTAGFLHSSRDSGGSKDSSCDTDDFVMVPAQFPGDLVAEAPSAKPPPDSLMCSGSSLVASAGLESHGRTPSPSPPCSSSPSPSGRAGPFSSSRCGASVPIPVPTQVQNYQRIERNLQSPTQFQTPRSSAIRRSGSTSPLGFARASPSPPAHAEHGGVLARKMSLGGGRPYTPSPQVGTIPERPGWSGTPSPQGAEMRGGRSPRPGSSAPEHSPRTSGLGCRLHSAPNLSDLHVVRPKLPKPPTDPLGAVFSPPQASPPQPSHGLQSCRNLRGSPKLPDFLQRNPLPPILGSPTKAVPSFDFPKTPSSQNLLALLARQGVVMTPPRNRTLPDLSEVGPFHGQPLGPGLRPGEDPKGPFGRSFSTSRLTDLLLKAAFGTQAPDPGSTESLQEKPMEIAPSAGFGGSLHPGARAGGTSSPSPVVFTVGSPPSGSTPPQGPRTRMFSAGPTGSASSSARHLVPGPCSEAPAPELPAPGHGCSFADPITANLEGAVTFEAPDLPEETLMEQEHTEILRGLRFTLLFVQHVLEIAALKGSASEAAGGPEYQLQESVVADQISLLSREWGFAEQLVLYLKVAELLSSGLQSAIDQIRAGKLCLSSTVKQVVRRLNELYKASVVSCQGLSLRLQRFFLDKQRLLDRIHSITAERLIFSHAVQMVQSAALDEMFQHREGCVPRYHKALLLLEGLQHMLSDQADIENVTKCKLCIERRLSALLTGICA

[6] = tested on: pATG13 (Ser318), ATG13 and ULK1 in liver lysates; assay: PD study, in vivo target engagement in mouse liver; settings: mice, 10 mg/kg oral gavage, 2 h post dosing
[7] = PK study in mice, plasma concentration by LC-MS/MS; settings: single oral dose 30 mg/kg
[8] = tested on: MDA-MB-468 cells; assay: Combination dose-response matrix with PARP inhibitors, Combenefit Loewe model; type: cell-based, human; settings: combination with niraparib; synergy at 26 0.19–1.7 μM and niraparib 3.8–7.5 μM
[9] = tested on: autophagosomes in MDA-MB-468 cells; assay: TEM imaging of autophagosomes; type: cell-based, human; settings: EBSS starved cells, 10 μM

## O=C1CCCc2cc(Nc3ncc(C(F)(F)F)c(NC4CC4)n3)ccc21 [compound 19, 6-((4-(Cyclopropylamino)-5-(trifluoromethyl)pyrimidin-2-yl)amino)-3,4-dihydronaphthalen-1(2H)-one]
[1]
  solubility in PBS (in words): limited solubility

## O=C(c1cc(Cc2n[nH]c(=O)c3ccccc23)ccc1F)N1CCN(C(=O)C2CC2)CC1 [olaparib, reference compound]
[2]; 30 μM
  increase in autophagic flux compared with control cells: approximately 30%

## CNC(=O)c1ccccc1Oc1nc(Nc2cc(OC)c(OC)c(OC)c2)ncc1Br [compound 1]
[3]; ip dosing
  systemic exposure: poor systemic exposure
[3]
  oral bioavailability: no measurable oral bioavailability

## FC(F)(F)c1cnc(Nc2cnc3[nH]ccc3c2)nc1NC1CC1 [compound 11, N^4-Cyclopropyl-N^2-(1H-pyrrolo[2,3-b]pyridin-5-yl)-5-(trifluoromethyl)pyrimidine-2,4-diamine]
[4]
  ULK1 ADP-Glo potency compared with compound 3: approximately equipotent with 3
[1]
  solubility in PBS (in words): limited solubility

## FC(F)(F)c1cnc(Nc2ccc3ncccc3c2)nc1NC1CC1 [compound 16, N^4-Cyclopropyl-N^2-(quinolin-6-yl)-5-(trifluoromethyl)-pyrimidine-2,4-diamine]
[5]
  ULK1 NanoBRET IC50 (range in words): sub-micromolar range

## FC(F)(F)c1cnc(Nc2ccc3[nH]ccc3c2)nc1NC1CC1 [compound 8, N^4-Cyclopropyl-N^2-(1H-indol-5-yl)-5-(trifluoromethyl)-pyrimidine-2,4-diamine]
[4]
  ULK1 ADP-Glo potency compared with compound 3: approximately equipotent with 3

## Nc1ccc(Nc2ncc(C(F)(F)F)c(NC3CC3)n2)cc1 [compound 23, N^2-(4-Aminophenyl)-N^4-cyclopropyl-5-(trifluoro-methyl)-pyrimidine-2,4-diamine]
[5]
  ULK1 NanoBRET IC50 (range in words): sub-micromolar range

## FC(F)(F)c1cnc(Nc2ccc3nn[nH]c3c2)nc1NC1CC1 [compound 10, N^2-(1 H-Benzo[d][1,2,3]triazol-6-yl)-N^4-cyclopropyl-5-(trifluoromethyl)pyrimidine-2,4-diamine]
[4]
  fold more potent than compound 3 in ULK1 ADP-Glo: about 4 fold

## FC(F)(F)c1cnc(Nc2ccc3ncoc3c2)nc1NC1CC1 [compound 15, N^2-(Benzo[d]oxazol-6-yl)-N^4-cyclopropyl-5-(trifluoromethyl)pyrimidine-2,4-diamine]
[4]
  ULK1 ADP-Glo potency compared with compound 3: approximately equipotent with 3

## COc1ccc(Nc2ncc(C(F)(F)F)c(NC3CC3)n2)cc1OC [compound 26, N^4-Cyclopropyl-N^2-(3,4-dimethoxyphenyl)-5-(trifluoromethyl)pyrimidine-2,4-diamine]
[6]
  effect on pATG13 (Ser318) in liver: robust inhibition of pATG13 (Ser318)
  effect on total ATG13 and ULK1 levels in liver: downregulation of total ATG13 and ULK1 levels
[5]
  ULK1 NanoBRET IC50 (range in words): sub-micromolar range
[2]; 10 μM with olaparib 30 μM
  effect on olaparib-induced increase in autophagic flux: significantly suppressed the olaparib-induced increase in autophagic flux to a level similar to that observed in untreated control cells
[7]
  Cmax relative to ULK1 NanoBRET IC50: about 3 fold
[8]
  maximum synergy score (Loewe): 26
[9]
  number of autophagosomes by TEM: decreased the number of autophagosomes to a greater extent than SBI-0206965

Reference: paper PMC8064294 (Journal of medicinal chemistry, 2020)
